From patent publication US20240246942A1, “KINASE INHIBITORS FOR THE TREATMENT OF NEURODEGENERATIVE DISEASES” (priority 2020, published 2024) come the findings set out here.

One data set has as its target JNK1 (Homo sapiens, UniProt P45983). The data set is described as follows: JNK1 homogeneous time-resolved fluorescence enzyme inhibition assay. Type of data set: biochemical. To be noted: for R: ratio of IC50 values of JNK1 over JNK3: isoform selectivity against JNK1. The procedure:
(§1) A 10-point titration of all compounds was carried out in 3-fold dilutions from 10 μM to 0.5 nM.

Another data set concerns the target JNK3α1 (Homo sapiens, UniProt P53779). In kind it is biochemical. The procedure: as §1
The target of another data set is p38α (Homo sapiens, UniProt Q16539). The experiment in a line: p38 enzyme inhibition assay. Conditions: mean of ≥2 experiments; read-out: Biochemical inhibition IC50 p38α.
Chain of p38α (Q16539 whole entry): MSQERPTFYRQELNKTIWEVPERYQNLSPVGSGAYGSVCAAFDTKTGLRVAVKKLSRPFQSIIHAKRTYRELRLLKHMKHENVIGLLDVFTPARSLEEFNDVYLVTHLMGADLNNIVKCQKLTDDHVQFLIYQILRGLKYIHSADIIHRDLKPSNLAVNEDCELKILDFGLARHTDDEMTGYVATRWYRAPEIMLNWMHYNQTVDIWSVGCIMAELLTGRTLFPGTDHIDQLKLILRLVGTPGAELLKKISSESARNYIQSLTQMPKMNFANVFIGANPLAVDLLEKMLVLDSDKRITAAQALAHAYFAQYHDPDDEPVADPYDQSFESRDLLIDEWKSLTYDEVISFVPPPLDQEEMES
The next data set has as its target CYP2C9 (Homo sapiens, UniProt P11712). The experiment in a line: P450 cocktail inhibition assay, CYP2C9. To be noted: at 10 μM. Type of data set: in vitro ADME. As for the experimental part:
(§2) P450s inhibition for four major isoforms are evaluated using a cocktail inhibition assay where the metabolism of specific marker substrate (CYP1A2 phenaceten […] to acetaminophen); CYP2C9, tolbutamide hydroxylation to hydrocytolbutamide; CYP2D6, bufuralol hydroxylation to […]; and CYP3A4, midazolam hydroxylation to 1′-Hydroxymidazolam) in the presence or absence of 10 TM probe compound is evaluated. The concentration of each marker substrate is approximately its Km. […] Specific inhibitors for each isoform are included in each run to validate the system.

Another data set deals with CYP3A4 (Homo sapiens, UniProt P08684). The data set is described as follows: P450 cocktail inhibition assay, CYP3A4. Type of data set: in vitro ADME. To be noted: at 10 μM. As for the experimental part: as §2
Chain of CYP3A4 (P08684 whole entry, canonical isoform): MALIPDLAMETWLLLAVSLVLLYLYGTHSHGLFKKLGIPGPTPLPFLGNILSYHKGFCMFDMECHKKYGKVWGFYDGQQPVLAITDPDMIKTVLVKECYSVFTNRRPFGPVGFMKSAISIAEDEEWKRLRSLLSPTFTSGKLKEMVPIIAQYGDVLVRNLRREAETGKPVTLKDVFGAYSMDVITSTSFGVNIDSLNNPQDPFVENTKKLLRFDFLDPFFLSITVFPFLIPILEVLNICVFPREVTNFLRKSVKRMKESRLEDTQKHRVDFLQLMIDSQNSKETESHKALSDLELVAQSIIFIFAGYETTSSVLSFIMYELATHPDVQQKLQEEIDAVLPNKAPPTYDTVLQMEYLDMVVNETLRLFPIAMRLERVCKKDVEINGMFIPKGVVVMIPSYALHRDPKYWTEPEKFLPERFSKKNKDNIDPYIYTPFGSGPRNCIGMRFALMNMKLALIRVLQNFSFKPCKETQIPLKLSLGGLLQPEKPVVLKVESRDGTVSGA
The next data set has as its target JNK2 (Homo sapiens, UniProt P45984). The data set is described as follows: JNK2 homogeneous time-resolved fluorescence enzyme inhibition assay. Conditions: for R: ratio of IC50 values of JNK2 over JNK3: isoform selectivity against JNK2; for IC50: mean of ≥2 experiments, read-out: Biochemical inhibition IC50 JNK2. In kind it is biochemical. The procedure: as §1
Data set [1] in a line: Microsomal stability, human. In kind it is in vitro ADME. Conditions: human microsomes.
A further data set addresses CYP2D6 (Homo sapiens, UniProt P10635). The data set is described as follows: P450 cocktail inhibition assay, CYP2D6. Type of data set: in vitro ADME. To be noted: at 10 μM. The procedure:
as §2

A further data set relates to SHSY5Y cells. The experiment in a line: MTT cytotoxicity assay.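 Further: compounds tested at 10 µM final concentration.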 In kind it is cell-based. The arrangement: dose or concentration left out as unconfirmed. Conditions: 48 hrs, average of ≥2 experiments. The procedure: A day before the assay, cells were plated at 50,000/well in 96 well plates in the culture medium. […] After the incubation, cells were subjected to MTT assay using Vybrant MTT Cell Proliferation kit as directed by the vendor (Life Technologies).

Data set [2] in a line: Microsomal stability, mouse. In kind it is in vitro ADME. Conditions: mouse microsomes.
Another data set concerns the target T1, CYP1A2 (Homo sapiens, UniProt P05177).
T1 sequence (P05177 1-516): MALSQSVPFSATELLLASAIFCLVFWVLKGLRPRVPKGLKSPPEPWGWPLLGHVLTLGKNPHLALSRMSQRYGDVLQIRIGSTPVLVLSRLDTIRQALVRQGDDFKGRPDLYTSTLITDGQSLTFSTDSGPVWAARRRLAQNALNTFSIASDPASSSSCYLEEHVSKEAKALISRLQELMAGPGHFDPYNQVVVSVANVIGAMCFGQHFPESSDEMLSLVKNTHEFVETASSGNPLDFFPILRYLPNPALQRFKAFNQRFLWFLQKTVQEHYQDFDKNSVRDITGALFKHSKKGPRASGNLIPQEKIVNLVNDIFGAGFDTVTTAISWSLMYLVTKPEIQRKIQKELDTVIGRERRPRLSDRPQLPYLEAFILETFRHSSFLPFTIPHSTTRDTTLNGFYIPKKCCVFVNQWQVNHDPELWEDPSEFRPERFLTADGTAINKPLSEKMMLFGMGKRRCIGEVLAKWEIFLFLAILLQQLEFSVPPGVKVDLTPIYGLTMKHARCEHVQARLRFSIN
The experiment in a line: P450 cocktail inhibition assay, CYP1A2. In kind it is in vitro ADME. To be noted: at 10 μM. As for the experimental part: as §2

[3] abbreviates: mean of ≥2 experiments, read-out: Biochemical inhibition IC50 JNK1.
Where [4] appears, read: mean of ≥2 experiments, read-out: Biochemical inhibition IC50 JNK3.

SMILES strings stand for the structures. Read-outs that look alike come from different tables or passages of the source.

Chain of JNK1 (P45983 whole entry, canonical isoform): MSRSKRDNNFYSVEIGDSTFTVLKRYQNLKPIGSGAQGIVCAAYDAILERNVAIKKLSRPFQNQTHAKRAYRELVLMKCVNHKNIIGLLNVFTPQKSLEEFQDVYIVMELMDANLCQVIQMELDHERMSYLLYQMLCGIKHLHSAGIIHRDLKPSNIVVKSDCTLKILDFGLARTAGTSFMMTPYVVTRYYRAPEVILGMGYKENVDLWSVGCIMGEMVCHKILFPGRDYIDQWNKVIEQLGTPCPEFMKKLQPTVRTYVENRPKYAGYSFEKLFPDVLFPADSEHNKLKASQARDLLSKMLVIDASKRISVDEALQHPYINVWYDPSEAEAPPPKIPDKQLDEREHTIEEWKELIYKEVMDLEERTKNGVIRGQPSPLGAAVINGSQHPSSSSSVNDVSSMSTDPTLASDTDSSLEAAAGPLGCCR
Chain of JNK2 (P45984 whole entry, canonical isoform): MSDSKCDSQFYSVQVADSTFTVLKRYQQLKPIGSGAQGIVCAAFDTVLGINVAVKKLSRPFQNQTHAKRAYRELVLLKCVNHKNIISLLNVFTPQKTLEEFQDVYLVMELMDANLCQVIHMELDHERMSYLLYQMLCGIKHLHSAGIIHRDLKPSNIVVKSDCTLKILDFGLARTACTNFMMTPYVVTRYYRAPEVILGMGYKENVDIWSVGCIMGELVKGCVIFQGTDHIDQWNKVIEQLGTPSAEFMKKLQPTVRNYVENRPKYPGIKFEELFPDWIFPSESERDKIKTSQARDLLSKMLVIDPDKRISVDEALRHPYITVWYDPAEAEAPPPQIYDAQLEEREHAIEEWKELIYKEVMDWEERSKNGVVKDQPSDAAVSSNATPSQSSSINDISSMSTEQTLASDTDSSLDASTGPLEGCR
Chain of JNK3α1 (P53779 1-422 isoform P53779-2): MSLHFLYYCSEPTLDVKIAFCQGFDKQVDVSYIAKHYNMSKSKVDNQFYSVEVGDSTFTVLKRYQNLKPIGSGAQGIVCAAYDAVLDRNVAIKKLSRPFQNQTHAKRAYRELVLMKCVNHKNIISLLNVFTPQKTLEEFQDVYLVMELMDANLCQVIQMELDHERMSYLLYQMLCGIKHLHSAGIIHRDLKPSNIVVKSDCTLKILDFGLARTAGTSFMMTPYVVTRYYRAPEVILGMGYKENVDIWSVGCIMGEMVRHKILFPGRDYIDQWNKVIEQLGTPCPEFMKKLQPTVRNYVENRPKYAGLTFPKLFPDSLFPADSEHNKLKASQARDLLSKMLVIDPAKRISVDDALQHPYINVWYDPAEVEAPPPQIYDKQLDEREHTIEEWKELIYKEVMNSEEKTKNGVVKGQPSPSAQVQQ
Chain of CYP2C9 (P11712 whole entry, canonical isoform): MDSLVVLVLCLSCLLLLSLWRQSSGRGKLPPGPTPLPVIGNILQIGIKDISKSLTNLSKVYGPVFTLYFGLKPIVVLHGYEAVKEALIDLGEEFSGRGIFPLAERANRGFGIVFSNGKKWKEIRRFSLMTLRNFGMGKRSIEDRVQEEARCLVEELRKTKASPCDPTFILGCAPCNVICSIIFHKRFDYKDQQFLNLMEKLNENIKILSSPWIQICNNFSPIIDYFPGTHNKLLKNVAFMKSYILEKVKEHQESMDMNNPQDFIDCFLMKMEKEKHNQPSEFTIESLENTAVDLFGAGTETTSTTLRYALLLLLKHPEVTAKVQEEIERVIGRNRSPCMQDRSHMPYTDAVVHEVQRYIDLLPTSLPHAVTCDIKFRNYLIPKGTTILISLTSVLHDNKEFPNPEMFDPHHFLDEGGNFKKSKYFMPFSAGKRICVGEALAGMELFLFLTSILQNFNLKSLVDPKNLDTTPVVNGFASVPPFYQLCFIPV
Chain of CYP2D6 (P10635 whole entry): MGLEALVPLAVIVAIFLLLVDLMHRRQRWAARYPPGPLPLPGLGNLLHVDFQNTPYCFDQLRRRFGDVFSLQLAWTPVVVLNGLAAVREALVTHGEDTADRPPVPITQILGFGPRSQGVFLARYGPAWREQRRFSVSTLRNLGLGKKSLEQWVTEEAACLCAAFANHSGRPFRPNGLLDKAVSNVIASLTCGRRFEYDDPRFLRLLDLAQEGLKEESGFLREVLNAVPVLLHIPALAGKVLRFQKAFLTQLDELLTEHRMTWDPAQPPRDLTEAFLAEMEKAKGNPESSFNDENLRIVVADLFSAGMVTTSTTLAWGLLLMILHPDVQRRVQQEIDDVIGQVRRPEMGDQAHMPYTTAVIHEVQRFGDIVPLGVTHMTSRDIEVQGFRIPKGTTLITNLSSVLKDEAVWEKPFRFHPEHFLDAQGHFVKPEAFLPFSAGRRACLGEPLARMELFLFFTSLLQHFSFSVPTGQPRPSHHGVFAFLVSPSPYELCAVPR

Take `[2H]C([2H])([2H])N1CC[C@@H](NC(=O)c2cc(-n3cc(NC(=O)Nc4ccccc4Cl)cn3)cs2)C1` [Compound 11, (R)-4-(4-(3-(2-chlorophenyl)ureido)-1H-pyrazol-1-yl)-N-(1-(methyl-d3)pyrrolidin-3-yl)thiophene-2-carboxamide]: at JNK1, the “R: ratio of IC50 values of JNK1 over JNK3” value (“R: ratio … of JNK1 over JNK3” below) came out at 61. The IC50 at JNK1 (setting [3]) is 5100 nM; at JNK3α1 (setting [4]) it was 83 nM.

For `O=C(Nc1cnn(-c2cc(C(=O)NC3CNC3)cs2)c1)Nc1ccccc1Cl` [Compound 5, N-(azetidin-3-yl)-5-(4-(3-(2-chlorophenyl)ureido)-1H-pyrazol-1-yl)thiophene-3-carboxamide], on JNK3α1 (setting [4]), the IC50 amounted to 200 nM.

On to `O=C(Nc1cnn(-c2csc(C(=O)NCC3CCNCC3)c2)c1)Nc1ccccc1Cl` [Compound 20, 4-(4-(3-(2-chlorophenyl)ureido)-1H-pyrazol-1-yl)-N-(piperidin-4-ylmethyl)thiophene-2-carboxamide], for which the IC50 was greater than 20000 nM on p38α and 6600 nM on JNK1 (setting [3]).

Consider `CC1(NC(=O)c2cc(-n3cc(NC(=O)Nc4ccccc4Cl)cn3)cs2)COC1` [Compound 18, 4-(4-(3-(2-chlorophenyl)ureido)-1H-pyrazol-1-yl)-N-(3-methyloxetan-3-yl)thiophene-2-carboxamide], for which the IC50 is greater than 20000 nM on p38α, 3300 nM at JNK1 (setting [3]) and 45 nM at JNK3α1 (setting [4]). Moreover, the “R: ratio … of JNK1 over JNK3” value on JNK1 is recorded as 73.

For `O=C(Nc1cnn(-c2ccc(C(=O)NC3CNC3)s2)c1)Nc1ccccc1Cl` [Compound 4, N-(azetidin-3-yl)-5-(4-(3-(2-chlorophenyl)ureido)-1H-pyrazol-1-yl)thiophene-2-carboxamide], the IC50 on JNK3α1 (setting [4]) was 800 nM.

`CN1CCC[C@H]1CNC(=O)c1cc(-n2cc(NC(=O)Nc3ccccc3Cl)cn2)cs1` [Compound 23, (S)-4-(4-(3-(2-chlorophenyl)ureido)-1H-pyrazol-1-yl)-N-((1-methylpyrrolidin-2-yl)methyl)thiophene-2-carboxamide]: the “R: ratio … of JNK1 over JNK3” value on JNK1 came to 107. Further, the IC50 came to 9100 nM on JNK1 (setting [3]) and 85 nM on JNK3α1 (setting [4]).

For the compound `CN1CC[C@H](CNC(=O)c2cc(-n3cc(NC(=O)Nc4ccccc4Cl)cn3)cs2)C1` [Compound 21, (R)-4-(4-(3-(2-chlorophenyl)ureido)-1H-pyrazol-1-yl)-N-((1-methylpyrrolidin-3-yl)methyl)thiophene-2-carboxamide], on JNK1, the “R: ratio … of JNK1 over JNK3” value was found to be 46. For the same compound, the IC50 on JNK1 (setting [3]) was 10300 nM; at JNK3α1 (setting [4]), 222 nM.

Take `CN1CCC(CNC(=O)c2cc(-n3cc(NC(=O)Nc4ccccc4Cl)cn3)cs2)CC1` [Compound 19, 4-(4-(3-(2-chlorophenyl)ureido)-1H-pyrazol-1-yl)-N-((1-methylpiperidin-4-yl)methyl)thiophene-2-carboxamide]: the IC50 on p38α is greater than 20000 nM; on JNK1 (setting [3]), 5800 nM; at JNK3α1 (setting [4]), 142 nM. For the same compound, the “R: ratio … of JNK1 over JNK3” value on JNK1 was 41.

As for `CN1CC[C@@H](NC(=O)c2cc(-n3cc(NC(=O)Nc4ccccc4Cl)cn3)cs2)C1` [Compound 10, (R)-4-(4-(3-(2-chlorophenyl)ureido)-1H-pyrazol-1-yl)-N-(1-methylpyrrolidin-3-yl)thiophene-2-carboxamide], the “R: ratio … of JNK1 over JNK3” value at JNK1 came to 60. Moreover, the values for the IC50 on JNK1 (setting [3]) and on JNK3α1 (setting [4]) were 5100 nM and 85 nM, respectively.

With `O=C(Nc1cnn(-c2csc(C(=O)N[C@@H]3CCOC3)c2)c1)Nc1ccccc1Cl` [Compound 16, (R)-4-(4-(3-(2-chlorophenyl)ureido)-1H-pyrazol-1-yl)-N-(tetrahydrofuran-3-yl)thiophene-2-carboxamide], the “CYP-450 % inh. 2C9” value at CYP2C9 is 38%. In addition, the “CYP-450 % inh. 3A4” value at CYP3A4 is listed as −20%. In addition, on JNK2, the “isoform selectivity against JNK2 vs JNK3” value is recorded as greater than 250 folds, the “R: ratio of IC50 values of JNK2 over JNK3” value was 253 and the IC50 was determined as 2020 nM. In data set [1], the “Mic. stability t1/2 Human” value is on record as 33 min. The “CYP-450 % inh. 2D6” value on CYP2D6 was 1%. In addition, in the data set on SHSY5Y cells, the MTT cell viability worked out at 112%. For the same compound, in data set [2], the “Mic. stability t1/2 Mouse” value was 13 min. The “CYP-450 % inh. 1A2” value on CYP1A2 came out at 17%. Further, the “R: ratio … of JNK1 over JNK3” value at JNK1 is listed as 188. For the same compound, the IC50 on JNK1 (setting [3]) stood at 1500 nM. The IC50 on JNK3α1 (read-out: JNK3 inhibitory activity IC50) amounted to 8 nM.

On to `O=C(Nc1cnn(-c2nc(C(=O)NC3CNC3)cs2)c1)Nc1ccccc1Cl` [Compound 3, N-(azetidin-3-yl)-2-(4-(3-(2-chlorophenyl)ureido)-1H-pyrazol-1-yl)thiazole-4-carboxamide], for which, on JNK1 (in words, FIG. 3), the “inhibition of JNK1” value was “no inhibition”. The “inhibition of JNK3” value at JNK3α1 (in words, FIG. 3) is reported as “no inhibition”.

In the case of `CN1CC[C@H](NC(=O)c2cc(-n3cc(NC(=O)Nc4ccccc4Cl)cn3)cs2)C1` [Compound 12, (S)-4-(4-(3-(2-chlorophenyl)ureido)-1H-pyrazol-1-yl)-N-(1-methylpyrrolidin-3-yl)thiophene-2-carboxamide], the “CYP-450 % inh. 2C9” value at CYP2C9 is reported as −9%. Besides, on CYP3A4, the “CYP-450 % inh. 3A4” value is given as −18%. Moreover, the “isoform selectivity against JNK2 vs JNK3” value on JNK2 is recorded as “around 40 folds”. In addition, at JNK2, the “R: ratio of IC50 values of JNK2 over JNK3” value worked out at 39. Moreover, the IC50 on JNK2 was found to be 1510 nM; on JNK1 (setting [3]), 2200 nM; on JNK3α1 (setting [4]), 39 nM. Also, the “Mic. stability t1/2 Human” value in [1] is 54 min. In addition, the “CYP-450 % inh. 2D6” value at CYP2D6 came to 20%. In addition, in the data set with SHSY5Y cells, the MTT cell viability came to 94%. Besides, in [2], the “Mic. stability t1/2 Mouse” value worked out at 20 min. Besides, at CYP1A2, the “CYP-450 % inh. 1A2” value is given as −1%. Besides, on JNK1, the “R: ratio … of JNK1 over JNK3” value came to 56.

Turning to `O=C(Nc1cnn(-c2csc(C(=O)N[C@@H]3CCNC3)c2)c1)Nc1ccccc1Cl` [Compound 9, (R)-4-(4-(3-(2-chlorophenyl)ureido)-1H-pyrazol-1-yl)-N-(pyrrolidin-3-yl)thiophene-2-carboxamide], the IC50 on JNK1 (setting [3]) was found to be 5900 nM; at JNK3α1 (setting [4]) it was 132 nM.

`CNC(=O)c1cc(-n2cc(NC(=O)Nc3ccccc3Cl)cn2)cs1` [Compound 7, 4-(4-(3-(2-chlorophenyl)ureido)-1H-pyrazol-1-yl)-N-methylthiophene-2-carboxamide]: the IC50 on p38α and against JNK1 was greater than 20000 nM in each case.

`O=C(Nc1cnn(-c2csc(C(=O)NC[C@H]3CCOC3)c2)c1)Nc1ccccc1Cl` [Compound 22, (R)-4-(4-(3-(2-chlorophenyl)ureido)-1H-pyrazol-1-yl)-N-((tetrahydrofuran-3-yl)methyl)thiophene-2-carboxamide]: the “R: ratio … of JNK1 over JNK3” value on JNK1 is listed as 31. Further, the IC50 on JNK1 (setting [3]) is 2200 nM; at JNK3α1 (setting [4]), 71 nM.

For `CC(C)N1CC[C@H](NC(=O)c2cc(-n3cc(NC(=O)Nc4ccccc4Cl)cn3)cs2)C1` [Compound 13, (S)-4-(4-(3-(2-chlorophenyl)ureido)-1H-pyrazol-1-yl)-N-(1-isopropylpyrrolidin-3-yl)thiophene-2-carboxamide], the “R: ratio … of JNK1 over JNK3” value on JNK1 amounted to 60. The IC50 on JNK1 (setting [3]) is 720 nM; at JNK3α1 (setting [4]) it was 12 nM.

As for `O=C(Nc1cnn(-c2csc(C(=O)NC3CNC3)c2)c1)Nc1ccccc1Cl` [Compound 6, N-(azetidin-3-yl)-4-(4-(3-(2-chlorophenyl)ureido)-1H-pyrazol-1-yl)thiophene-2-carboxamide], the IC50 on p38α was greater than 20000 nM; at JNK1 (setting [3]) it was 3600 nM; at JNK3α1 (setting [4]), 50 nM. Moreover, on JNK1 (JNK3 over JNK1, text), the “isoform selectivity against JNK1” value came to 72 fold. Besides, the “R: ratio … of JNK1 over JNK3” value on JNK1 was 72.

Broadly, the IC50 is the midpoint of a concentration-inhibition curve.
